Among the data in US20230106174A1, “RAS INHIBITORS” (Revolution Medicines, Inc., priority 2021, published 2023) are ring closure, yield of all isomers and IC50 values, retold here.

Like-named read-outs stand apart in the source and are kept apart here.

One data set addresses T1, K-Ras G12C (Homo sapiens, UniProt P01116+P62937, G12C).
T1 construct: endogenous in cells; host or cells: NCI-H358
The data set is described as follows: pERK potency assay in NCI-H358 cells (AlphaLISA SureFire or In-Cell Western). Conditions: 4 hours incubation. It is filed as cell-based. On the procedure:
The purpose of this assay was to measure the ability of test compounds to inhibit K-Ras in cells. […] This procedure measures a decrease in cellular pERK in response to test compounds. The procedure described below in NCI-H358 cells is applicable to K-Ras G12C. […]
NCI-H358 cells were grown and maintained using media and procedures recommended by the ATCC. On the day prior to compound addition, cells were plated in 384-well cell culture plates (40 μl/well) and grown overnight in a 37° C., 5% CO2 incubator. Test compounds were prepared in 10, 3-fold dilutions in DMSO, with a high concentration of 10 mM. On the day of assay, 40 nL of test compound was added to each well of cell culture plate using an Echo550 liquid handler (LabCyte®). Concentrations of test compound were tested in duplicate. After compound addition, cells were incubated 4 hours at 37° C., 5% CO2. Following incubation, culture medium was removed and cells were washed once with phosphate buffered saline.
In some experiments, cellular pERK level was determined using the AlphaLISA SureFire Ultra p-ERK1/2 Assay Kit (PerkinElmer). Cells were lysed in 25 μL lysis buffer, with shaking at 600 RPM at room temperature. Lysate (10 μL) was transferred to a 384-well Opti-plate (PerkinElmer) and 5 μL acceptor mix was added. After a 2-hour incubation in the dark, 5 μL donor mix was added, the plate was sealed, and incubated 2 hours at room temperature. Signal was read on an Envision plate reader (PerkinElmer) using standard AlphaLISA settings. Analysis of raw data was carried out in Excel (Microsoft) and Prism (GraphPad). Signal was plotted vs. the decadal logarithm of compound concentration, and IC50 was determined by fitting a 4-parameter sigmoidal concentration response model.
In other experiments, cellular pERK was determined by In-Cell Western. Following compound treatment, cells were washed twice with 200 μL tris buffered saline (TBS) and fixed for 15 minutes with 150 μL 4% paraformaldehyde in TBS. Fixed cells were washed 4 times for 5 minutes with TBS containing 0.1% Triton X-100 (TBST) and then blocked with 100 μL Odyssey blocking buffer (LI-COR) for 60 minutes at room temperature. […] Cells were washed 4 times for 5 minutes with TBST. Secondary antibody (IR-800CW rabbit, LI-COR, diluted 1:800) and DNA stain DRAQ5 (LI-COR, diluted 1:2000) were added and incubated 1-2 hours at room temperature. Cells were washed 4 times for 5 minutes with TBST. Plates were scanned on a Li—COR Odyssey CLx Imager. Analysis of raw data was carried out in Excel (Microsoft) and Prism (GraphPad). Signal was plotted vs. the decadal logarithm of compound concentration, and IC50 was determined by fitting a 4-parameter sigmoidal concentration response model.

A further data set deals with NCI-H358 (K-Ras G12C). The data set can be described thus: CellTiter-Glo cell viability assay, 5-day treatment, NCI-H358. Conditions: Homo sapiens, NCI-H358, 120 h. The data set is classed as cell-based. The source says: Determination of Cell Viability in RAS Mutant Cancer Cell Lines
Protocol: CellTiter-Glo® Cell Viability Assay
Note—The following protocol describes a procedure for monitoring cell viability of K-Ras mutant cancer cell lines in response to a compound of the invention. Other RAS isoforms may be employed, though the number of cells to be seeded will vary based on cell line used.
The purpose of this cellular assay was to determine the effects of test compounds on the proliferation of three human cancer cell lines (NCI-H358 (K-Ras G12C), AsPC-1 (K-Ras G12D), and Capan-1 (K-Ras G12V)) over a 5-day treatment period by quantifying the amount of ATP present at endpoint using the CellTiter-Glo® 2.0 Reagent (Promega).
Cells were seeded at 250 cells/well in 40 μL of growth medium in 384-well assay plates and incubated overnight in a humidified atmosphere of 5% CO2 at 37° C. On the day of the assay, 10 mM stock solutions of test compounds were first diluted into 3 mM solutions with 100% DMSO. Well-mixed compound solutions (15 μL) were transferred to the next wells containing 30 μL of 100% DMSO, and repeated until a 9-concentration 3-fold serial dilution was made (starting assay concentration of 10 μM). Test compounds (132.5 nL) were directly dispensed into the assay plates containing cells. The plates were shaken for 15 seconds at 300 rpm, centrifuged, and incubated in a humidified atmosphere of 5% CO2 at 37° C. for 5 days. On day 5, assay plates and their contents were equilibrated to room temperature for approximately 30 minutes. CellTiter-Glo® 2.0 Reagent (25 μL) was added, and plate contents were mixed for 2 minutes on an orbital shaker before incubation at room temperature for 10 minutes. Luminescence was measured using the PerkinElmer Enspire. Data were normalized by the following: (Sample signal/Avg. DMSO)*100. The data were fit using a four-parameter logistic fit.

T1 sequence (P01116 1-188 isoform P01116-2 G12C): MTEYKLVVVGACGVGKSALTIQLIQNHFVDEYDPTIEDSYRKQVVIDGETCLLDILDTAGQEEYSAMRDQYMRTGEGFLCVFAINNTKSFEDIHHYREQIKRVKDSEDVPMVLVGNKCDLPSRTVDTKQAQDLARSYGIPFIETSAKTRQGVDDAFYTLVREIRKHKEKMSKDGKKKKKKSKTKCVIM
T1 sequence (P62937 whole entry): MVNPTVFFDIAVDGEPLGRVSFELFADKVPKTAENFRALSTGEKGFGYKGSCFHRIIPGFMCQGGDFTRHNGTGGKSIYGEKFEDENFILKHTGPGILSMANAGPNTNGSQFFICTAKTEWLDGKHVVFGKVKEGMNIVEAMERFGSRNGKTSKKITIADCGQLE

Under “from C=CCOC(=O)NC(Cc1nc(-c2ccc3c(c2)c(CC(C)(C)COC(=O)[C@@H]2CCCNN2)c(-c2cccnc2[C@H](C)OC)n3CC)no1)C(=O)O, amide bond, HATU/DIPEA, DCM, 139.0 mM, 25.0 °C, 16.0 h”, `C=CCOC(=O)N[C@H]1Cc2nc(no2)-c2ccc3c(c2)c(c(-c2cccnc2[C@H](C)OC)n3CC)CC(C)(C)COC(=O)[C@@H]2CCCN(N2)C1=O` yielded a ring closure, yield of all isomers of 33%.

For `CCn1c(-c2cc(N3CCN(C(=O)OCc4ccccc4)CC3)cnc2[C@H](C)OC)c2c3cc(ccc31)-c1csc(n1)C[C@H](NC(=O)OC(C)(C)C)C(=O)N1CCC[C@H](N1)C(=O)OCC(C)(C)C2`, the ring closure, yield of all isomers (from CCn1c(-c2cc(N3CCN(C(=O)OCc4ccccc4)CC3)cnc2[C@H](C)OC)c(CC(C)(C)CO)c2cc(-c3csc(C[C@H](NC(=O)OC(C)(C)C)C(=O)N4CCC[C@@H](C(=O)O)N4)n3)ccc21, ester bond, EDCI/HOBt/DIEA, MeCN, 10.3 mM, 25.0 °C, 16.0 h) was 54.8%.

`CCn1c(-c2cc(N3CCN4CCCC[C@@H]4C3)cnc2[C@H](C)OC)c2c3cc(ccc31)-c1cccc(c1)C[C@H](NC(=O)OC(C)(C)C)C(=O)N1CCC[C@H](N1)C(=O)OCC(C)(C)C2`: for the setting “from CCn1c(-c2cc(N3CCN4CCCC[C@@H]4C3)cnc2[C@H](C)OC)c(CC(C)(C)CO)c2cc(-c3cccc(C[C@H](NC(=O)OC(C)(C)C)C(=O)N4CCC[C@@H](C(=O)O)N4)c3)ccc21, ester bond, EDCI/HOBt/DIPEA, DCM, 11.3 mM, 25.0 °C, 16.0 h”, the ring closure, yield of all isomers was found to be 62%.

Where the note is “from CCn1c(-c2cccnc2[C@H](C)OC)c(CC(C)(C)CO)c2cc(-c3nc(C[C@H](NC(=O)OC(C)(C)C)C(=O)N4CCC[C@@H](C(=O)O)N4)no3)ccc21, ester bond, EDCI/HOBT/DIPEA, DCM, 6.8 mM, 25.0 °C, 16.0 h”, `CCn1c(-c2cccnc2[C@H](C)OC)c2c3cc(ccc31)-c1nc(no1)C[C@H](NC(=O)OC(C)(C)C)C(=O)N1CCC[C@H](N1)C(=O)OCC(C)(C)C2` had a ring closure, yield of all isomers of 18%.

For the molecule `CO[C@@H](C)c1ncccc1-c1c2c3cc(ccc3n1CC(F)(F)F)-c1coc(n1)C[C@H](NC(=O)OCc1ccccc1)C(=O)N1CCC[C@H](N1)C(=O)OCC(C)(C)C2`, the ring closure, yield of all isomers (from CO[C@@H](C)c1ncccc1-c1c(CC(C)(C)COC(=O)[C@@H]2CCCNN2)c2cc(-c3coc(C[C@H](NC(=O)OCc4ccccc4)C(=O)O)n3)ccc2n1CC(F)(F)F, amide bond, EDCI/HOBt/DIPEA, DCM, 6.06 mM, 25.0 °C, 16.0 h) came to 21%.

`CO[C@@H](C)c1ncccc1-c1c2c3cc(ccc3n1CC(F)(F)F)C1CCCN(C1)C[C@H](NC(=O)OC(C)(C)C)C(=O)N1CCC[C@H](N1)C(=O)OCC(C)(C)C2`: under “from CO[C@@H](C)c1ncccc1-c1c(CC(C)(C)CO)c2cc(C3CCCN(C[C@H](NC(=O)OC(C)(C)C)C(=O)N4CCC[C@@H](C(=O)O)N4)C3)ccc2n1CC(F)(F)F, ester bond, EDCI/HOBT/DIPEA, DCM, 6.2 mM, 25.0 °C”, the ring closure, yield of all isomers came out at 17%.

`CO[C@@H](C)c1ncccc1-c1c2c3cc(ccc3n1CC(F)(F)F)C1CCN(C1)C[C@H](NC(=O)OC(C)(C)C)C(=O)N1CCC[C@H](N1)C(=O)OCC(C)(C)C2` had a ring closure, yield of all isomers (from CO[C@@H](C)c1ncccc1-c1c(CC(C)(C)CO)c2cc(C3CCN(C[C@H](NC(=O)OC(C)(C)C)C(=O)N4CCC[C@@H](C(=O)O)N4)C3)ccc2n1CC(F)(F)F, ester bond, EDCI/HOBt/DIPEA, DCM, 6.97 mM, 25.0 °C, 16.0 h) of 21%.

Turning to `CO[C@@H](C)c1ncccc1-c1c2c3cc(ccc3n1CC(F)(F)F)C1CN(C1)C[C@H](NC(=O)OC(C)(C)C)C(=O)N1CCC[C@H](N1)C(=O)OCC(C)(C)C2`, the ring closure, yield of all isomers (from CO[C@@H](C)c1ncccc1-c1c(CC(C)(C)CO)c2cc(C3CN(C[C@H](NC(=O)OC(C)(C)C)C(=O)N4CCC[C@@H](C(=O)O)N4)C3)ccc2n1CC(F)(F)F, ester bond, EDCI/HOBt/DIPEA, DCM, 6.45 mM, 30.0 °C, 16.0 h) is 37%.

`C=CC(=O)N1CCOC2(CCN(C(=O)N(C)[C@H](C(=O)N[C@H]3Cc4cncc(n4)-c4ccc5c(c4)c(c(-c4cccnc4[C@H](C)OC)n5CC)CC(C)(C)COC(=O)[C@@H]4CCCN(N4)C3=O)C(C)C)CC2)C1` (atropisomer, axis not shown) [Example A36] showed an IC50 at K-Ras G12C of over 1 µM.

At K-Ras G12C, `C=CC(=O)N1COC2(CCN(C(=O)N(C)[C@H](C(=O)N[C@H]3CC4=NC=C(O4)c4ccc5c(c4)c(c(-c4cccnc4[C@H](C)OC)n5CC)CC(C)(C)COC(=O)[C@@H]4CCCN(N4)C3=O)C(C)C)CC2)C1` (atropisomer, axis not shown) [Example A37] registered an IC50 of over 1 µM.

For `C=CC(=O)N1CCN(CC)C2(CCN(C(=O)N(C)[C@H](C(=O)N[C@H]3C[C@H]4CN(CCO4)c4ccc5c(c4)c(c(-c4cccnc4[C@H](C)OC)n5CC)CC(C)(C)COC(=O)[C@@H]4CCCN(N4)C3=O)C(C)C)CC2)C1` (atropisomer, axis not shown) [Example A38], the IC50 with NCI-H358 (K-Ras G12C) and against K-Ras G12C was over 1 µM in each case.

For `CCn1c(-c2cccnc2[C@H](C)OC)c2c3cc(ccc31)-c1cc(C(F)F)cc(n1)C[C@H](NC(=O)[C@H](C(C)C)N(C)C(=O)N1CCC3(CCN(C(=O)/C=C/CN(C)C)C3)CC1)C(=O)N1CCC[C@H](N1)C(=O)OCC(C)(C)C2` (atropisomer, axis not shown) [Example A39], the IC50 in the data set on NCI-H358 (K-Ras G12C) was over 1 µM.

`C=CC(=O)N1CC2(CCN(C(=O)N(C)[C@H](C(=O)N[C@H]3C[C@H]4CN(CCO4)c4ccc5c(c4)c(c(-c4cccnc4[C@H](C)OC)n5CC)CC(C)(C)COC(=O)[C@@H]4CCCN(N4)C3=O)C(C)C)CC2)C1` (atropisomer, axis not shown) [Example A121] yielded an IC50 on K-Ras G12C of over 1 µM.

In the case of `C=CC(=O)N1CCOC2(CCN(C(=O)N(C)[C@H](C(=O)N[C@H]3Cc4cncc(c4)-c4ccc5c(c4)c(c(-c4cccnc4[C@H](C)OC)n5CC)CC(C)(C)COC(=O)[C@@H]4CCCN(N4)C3=O)C(C)C)CC2)C1` (atropisomer, axis not shown) [Example A124], the IC50 on K-Ras G12C was over 1 µM.

Regarding `C=CC(=O)N1CCOC2(CCN(C(=O)N(C)[C@H](C(=O)N[C@H]3C[C@@]4(C)CN(CCO4)c4ccc5c(c4)c(c(-c4cccnc4[C@H](C)OC)n5CC)CC(C)(C)COC(=O)[C@@H]4CCCN(N4)C3=O)C(C)C)CC2)C1` (atropisomer, axis not shown) [Example A130], the IC50 against K-Ras G12C is over 0.89 µM.

For the molecule `C=CC(=O)N1CCOC2(C1)CN(C(=O)N(C)[C@H](C(=O)N[C@H]1C[C@H]3CN(CCO3)c3ccc4c(c3)c(c(-c3cccnc3[C@H](C)OC)n4CC)CC(C)(C)COC(=O)[C@@H]3CCCN(N3)C1=O)C(C)C)C2` (atropisomer, axis not shown) [Example A136], the IC50 against K-Ras G12C is over 1 µM.

As to `C=CC(=O)N1CCN(C)C2(CCN(C(=O)N(C)[C@H](C(=O)N[C@H]3C[C@H]4CN(CCO4)c4ccc5c(c4)c(c(-c4cccnc4[C@H](C)OC)n5CC)CC(C)(C)COC(=O)[C@@H]4CCCN(N4)C3=O)C(C)C)CC2)C1` (atropisomer, axis not shown) [Example A189], the IC50 at K-Ras G12C was over 1 µM.
